Measured values taken from patent US12180307B2, “Interleukin-13 binding cyclic oligopeptides and methods of use thereof” (B.A.I. LABORATORIES, LLC, priority 2022, dated 2024).
Values joined by “and” are separate entries in the source; they are usually repeats but may differ in a detail not shown here. Identical values can stand only once. Square brackets hold non-standard residues; d marks the D form. Peptide text beside a SMILES is read from it.

What was measured:
[1] = molecular target: Human IL-13 (Homo sapiens, UniProt P35225); assay: Surface plasmon resonance (SPR) binding assay, BIAcore 8K plus, immobilized Fc-tagged IL-13; conditions: 25° C., human IL-13 with Fc-tag immobilized on CM5 chip, read-out: Binding Affinity (KD) for IL-13
Chain of Human IL-13 (P35225 25-146): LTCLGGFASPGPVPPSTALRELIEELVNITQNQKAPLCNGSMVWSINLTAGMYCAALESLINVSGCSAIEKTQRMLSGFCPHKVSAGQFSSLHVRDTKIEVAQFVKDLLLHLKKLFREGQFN
Procedure: A SPR assay was conducted to determine the binding affinity of the cyclic oligopeptides generated in Example 1 for IL-13 using a BIAcore 8K plus instrument (GE Healthcare). Human IL-13 with an Fc-tag was immobilized onto the surfaces of Series S Sensor CM5 (GE Healthcare) chips in the range of 5000 resonance units (RU). The binding kinetics were performed at 25° C. with a flow rate of 30 μL/min. The cyclic oligopeptides were analyzed in running buffer comprising 20 mM PBS, 2.7 mM KCl, […], 0.0500 Surfactant P20, pH 7.4, 1% DMSO, starting at 100 μM with gradient of ten two-fold dilutions using solvent correction mode.
FIGS. 2C, 3C, 4C, 5C, 6C, 7C, 8C, 9C, 10C, 11C, and 12C provide SPR response curves for the cyclic oligopeptides generated in Example 1, wherein the x-axis represents time of reaction and y-axis represents altitude of response (Response Units).

[2] = FIG. 2D
From the text: Table printed on a drawing sheet, FIG. 2D
The patent's description of the figure: FIG. 2A provides the mass spectrometry (MS) spectrum for Compound 1. FIG. 2B provides the high-performance liquid chromatography (HPLC) chromatogram for Compound 1. FIG. 2C provides surface plasmon resonance (SPR) assay curves showing the binding affinity of Compound 1 for IL-13, the x-axis represents time of reaction and y-axis represents altitude of response (Response Units). FIG. 2D illustrates skin permeation rate of Compound 1 for up to 24 hours. FIG. 2E illustrates average permeability coefficient (Kp) of Compound 1 for 1, 2, 4, 8, 12 and 24 hours.
First reader's note: Substance name is taken from the legend of the plot printed above the table; the values are skin permeation in three replicates, their average and their range.

[3] = Skin permeability, Franz Cell diffusion cell with artificial skin, Transdermal Diffusion Tester, BCA assay; format: in vitro ADME; conditions: for Average Permeation Rate After 1 Hour (%) / Average Permeation Rate After 24 Hours (%): 32° C., 1.0 mg/mL in PBS; for Average Permeation Rate After 1 Hour (%) / Papp at 1 h, 1 mg/mL: after 1 hour; for Papp at 1 h, 1 mg/mL: read-out: Average Permeability Coefficient (Kp) After 1 hour (converted); for Average Permeation Rate After 24 Hours (%) / Papp at 24 h, 1 mg/mL: after 24 hours; for Papp at 24 h, 1 mg/mL: read-out: Average Permeability Coefficient (Kp) After 24 hours
Procedure: As used herein, the term “skin permeation rate” of a cyclic oligopeptide is measured using artificial skin (Start M, Merck), and refers to the percentage of the cyclic oligopeptide that penetrate the artificial skin after certain amount of time. For example, if 60% of the total amount of a cyclic oligopeptide of this disclosure has penetrated the artificial skin after 24 hours, then the skin permeation rate of the cyclic oligopeptide is 60% after 24 hours.
As used herein, the term “skin permeability coefficient (Kp)” refers to the rate at which the cyclic oligopeptide penetrates the skin, as measured using artificial skin (Start M, Merck). In some embodiments, permeability coefficient (Kp)(cm/hr) is calculated with the following equation:
[formula] wherein Q(mg) refers to the total amount of cyclic oligopeptide that pass through the artificial skin within a certain amount of time; A(cm^2) refers to the internal cross-section area of the artificial skin in a diffusion cell; T(hr) refers to the total amount of time of cyclic oligopeptide permeation; and ΔC(mg/mL) refers to the concentration difference of the cyclic oligopeptide between the two sides of the artificial skin. In some embodiments, the diffusion cell is a Franz Cell.
Skin permeability of the cyclic oligopeptides generated in Example 1 was measured using Transdermal Diffusion Tester (TK-12D, Shanghai Kai Kai Industrial Co Ltd) and artificial skin (Start M, Merck). Three parallel experimental groups were set up for each sample. The skin permeability of cyclic oligopeptides was evaluated by the following steps: • 1) 2.0 mg cyclic oligopeptide was weighed and dissolved in 100 μL DMSO. Three parallel experimental groups were set up for each cyclic oligopeptide. The cyclic oligopeptide-containing solution was then slowly added dropwise to 1900 μL 1×PBS solution and mixed evenly to prepare a PBS solution with a final concentration of 1.0 mg/mL cyclic polypeptide. • 2) A magnetron was inserted into a Franz Cell diffusion cell, and an artificial skin was sandwiched in the middle of the diffusion cell with the smooth side of the artificial skin facing up. The diffusion cell was then fixed with clamps after assembly. • 3) 7.75 ml 1×PBS solution were then added to the diffusion cell without generating bubbles in the diffusion cell. The sampling port of the diffusion cell was then sealed with parafilm to reduce evaporation. • 4) The temperature of a Transdermal Diffusion Tester was then set to 32° C., and the magneton speed was set to 180 r/min. • 5) The assembled diffusion cell was then put into the Transdermal Diffusion Tester and preheated for 5-10 mins. • 6) 400 μL of 1.0 mg/mL cyclic oligopeptide solution prepared in step 1) was then added to the upper chamber of the diffusion cell, making it evenly dispersed on the surface of the artificial skin without air bubbles. The top port of the diffusion cell was then covered with parafilm to reduce evaporation. • 7) Starting from the time of adding the cyclic oligopeptide solution, samples of about 0.5 mL of the receiving solution were taken at six time points, 1 h, 2 h, 4 h, 8 h, 12 h and 24 h, using a plastic dropper to take out the samples from the sampling port of the diffusion cell. 0.5 mL of 1×PBS solution was added into the diffusion cell to restore the initial volume of the receiving solution. When sampling, the diffusion cell was tilted appropriately to avoid the generation of bubbles. The samples were then numbered and store at −20° C. • 8) A BCA Assay (Micro BCA Protein Assay Kit, Thermo Scientific) was conducted to measure the concentration of cyclic oligopeptide in samples obtained in step 7) (Actual Concentration of the cyclic oligopeptide at the particular time point). Three parallel groups were used. The weight of cyclic oligopeptide in each sample obtained in step 7) equals to Actual Concentration×0.5 mL. • 9) Permeation rate of each cyclic oligopeptide at each time point was calculated according to the following equation: […]

[4] = FIG. 6D
Procedure: Table printed on a drawing sheet, FIG. 6D
The patent's description of the figure: FIG. 6A provides the MS spectrum of Compound 5. FIG. 6B provides the HPLC chromatogram for Compound 5. FIG. 6C provides SPR assay curves showing the binding affinity of Compound 5 for IL-13, the x-axis represents time of reaction and y-axis represents altitude of response (Response Units). FIG. 6D illustrates skin permeation rate of Compound 5 for up to 24 hours. FIG. 6E illustrates average permeability coefficient (Kp) of Compound 5 for 1, 2, 4, 8, 12 and 24 hours.
First reader's note: The substance name Compound 5 comes from the legend of the plot printed above the table; the values are three replicate permeation measurements with their average and range.

[5] = FIG. 7D
Procedure: Table printed on a drawing sheet, FIG. 7D
The patent's description of the figure: FIG. 7A provides the MS spectrum for Compound 6. FIG. 7B provides the HPLC chromatogram for Compound 6. FIG. 7C provides SPR assay curves showing the binding affinity of Compound 6 for IL-13, the x-axis represents time of reaction and y-axis represents altitude of response (Response Units). FIG. 7D illustrates skin permeation rate of Compound 6 for up to 24 hours. FIG. 7E illustrates average permeability coefficient (Kp) of Compound 6 for 1, 2, 4, 8, 12 and 24 hours.
First reader's note: The substance name Compound 6 is taken from the legend of the plot printed above the table on the same sheet.

[6] = FIG.4D
Procedure: Table printed on a drawing sheet, FIG.4D
The patent's description of the figure: FIG. 4A provides the MS spectrum for Compound 3. FIG. 4B provides the HPLC chromatogram for Compound 3. FIG. 4C provides SPR assay curves showing the binding affinity of Compound 3 for IL-13, the x-axis represents time of reaction and y-axis represents altitude of response (Response Units). FIG. 4D illustrates skin permeation rate of Compound 3 for up to 24 hours. FIG. 4E illustrates average permeability coefficient (Kp) of Compound 3 for 1, 2, 4, 8, 12 and 24 hours.
First reader's note: The substance name is printed only in the legend of the plot above the table; columns 2 to 4 are three replicate permeation measurements.

[7] = FIG. 3D
Procedure: Table printed on a drawing sheet, FIG. 3D
The patent's description of the figure: FIG. 3A provides the MS spectrum for Compound 2. FIG. 3B provides the HPLC chromatogram for Compound 2. FIG. 3C provides SPR assay curves showing the binding affinity of Compound 2 for IL-13, the x-axis represents time of reaction and y-axis represents altitude of response (Response Units). FIG. 3D illustrates skin permeation rate of Compound 2 for up to 24 hours. FIG. 3E illustrates average permeability coefficient (Kp) of Compound 2 for 1, 2, 4, 8, 12 and 24 hours.
First reader's note: The substance name is taken from the legend of the plot printed above the table; the values are three replicate permeation rates, their average and their range.

[8] = FIG. 5D
Procedure: Table printed on a drawing sheet, FIG. 5D
The patent's description of the figure: FIG. 5A provides the MS spectrum for Compound 4. FIG. 5B provides the HPLC chromatogram for Compound 4. FIG. 5C provides SPR assay curves showing the binding affinity of Compound 4 for IL-13, the x-axis represents time of reaction and y-axis represents altitude of response (Response Units). FIG. 5D illustrates skin permeation rate of Compound 4 for up to 24 hours. FIG. 5E illustrates average permeability coefficient (Kp) of Compound 4 for 1, 2, 4, 8, 12 and 24 hours.
First reader's note: The substance name is taken from the legend of the plot above the table on the same sheet; the values are skin permeation rates over time.

Permeation Avg. (%) [4]	Permeation Avg. (%) [8]	SMILES	Kd [1]	Permeation Avg. (%) [2]	Average Permeation Rate After 1 Hour (%) [3]	Average Permeation Rate After 24 Hours (%) [3]	Papp at 1 h, 1 mg/mL [3]	Papp at 24 h, 1 mg/mL [3]	Permeation Avg. (%) [5]	Permeation Avg. (%) [6]	Permeation Avg. (%) [7]
–	–	CC(C)[C@H]1NC(=O)[C@@H](Cc2ccccc2)NC(=O)[C@@H](CCCNC(=N)N)NC(=O)[C@@H]2CCCN2C(=O)[C@H](CCC(=O)O)NC(=O)[C@H](Cc2ccc(O)cc2)NC1=O [Compound 1, D-Arg D-Phe D- Val Tyr Glu Pro] (cyclo(EP[dR][dF][dV]Y))	16 µM	23.80% and 30.38% and 34.53% and 39.28%	18.54%	42.06%	11.1 ×10⁻⁶ cm/s	> 0.0278 ×10⁻⁶ cm/s	–	–	–
29.54% and 37.22% and 40.94% and 45.90%	–	CC(C)[C@@H]1NC(=O)[C@H](Cc2c[nH]c3ccccc23)NC(=O)[C@H]2CCCN2C(=O)[C@H]2CCCN2C(=O)[C@H](CCC(=O)O)NC(=O)[C@H](CCCNC(=N)N)NC1=O [Compound 5, Trp Val Arg Glu D-Pro D-Pro] (cyclo(E[dP][dP]WVR))	47.1 µM	–	–	48.73%	13.4 ×10⁻⁶ cm/s	–	–	–	–
–	–	CC(C)[C@H]1NC(=O)[C@@H]([C@H](C)O)NC(=O)[C@H](CCC(=O)O)NC(=O)[C@H](CCCNC(=N)N)NC(=O)[C@H](Cc2ccc(O)cc2)NC(=O)[C@H]2CCCN2C1=O [Compound 6, Tyr Arg Glu D-Thr D-Val D-Pro] (cyclo(E[dT][dV][dP]YR))	55.4 µM	–	15.34%	33.86%	9.14 ×10⁻⁶ cm/s	–	22.01% and 26.17% and 29.25% and 31.77%	–	–
–	–	CC(C)[C@H]1NC(=O)[C@@H]([C@H](C)O)NC(=O)[C@H](CCC(=O)O)NC(=O)[C@H]2CCCN2C(=O)[C@H]2CCCN2C(=O)[C@H](Cc2c[nH]c3ccccc23)NC1=O [Compound 3, Glu D-Thr D-Val Trp D-Pro D-Pro] (cyclo(E[dT][dV]W[dP][dP]))	22.8 µM	–	19.61%	36.59%	11.7 ×10⁻⁶ cm/s	–	–	24.16% and 28.65% and 31.31% and 34.61%	–
–	–	CC(C)[C@H]1NC(=O)[C@H]([C@@H](C)O)NC(=O)[C@H](CCCNC(=N)N)NC(=O)[C@H]2CCCN2C(=O)[C@@H](Cc2ccccc2)NC(=O)[C@H](CCC(=O)O)NC1=O [Compound 2, Arg Thr D-Val Glu D-Phe D-Pro] (cyclo(E[dF][dP]RT[dV]))	17.4 µM	–	14.62%	30.51%	8.69 ×10⁻⁶ cm/s	–	–	–	18.57% and 23.21% and 25.36% and 28.50%
–	21.81% and 27.10% and 30.14% and 33.22%	CC(C)[C@H]1NC(=O)[C@H](CCC(=O)O)NC(=O)[C@H](CCCNC(=N)N)NC(=O)[C@H]2CCCN2C(=O)[C@H]2CCCN2C(=O)[C@H](Cc2c[nH]c3ccccc23)NC1=O [Compound 4, Arg Glu D-Val Trp D-Pro D-Pro] (cyclo(E[dV]W[dP][dP]R))	26.2 µM	–	17.28%	35.59%	10.3 ×10⁻⁶ cm/s	> 0.0278 ×10⁻⁶ cm/s	–	–	–
